Key:
[1] = microbe, parasite or virus in culture; settings: Mycobacterium tuberculosis, 96 h, read-out: pIC50 (converted)
[2] = microbe, parasite or virus in culture; settings: Mycobacterium tuberculosis, 72 h, read-out: pIC50 (converted)

Compound	IC50 [1] [µM]	IC50 [2] [µM]
CC(C)C(=O)NCCCNC(=O)c1ccc(F)cc1O	> 501	125
COc1ccnc(NCCS(=O)(=O)c2ccccc2)n1	> 501	> 501
O=C(c1coc(COc2cccc3cnccc23)n1)N1CCSCC1	> 50.1	> 50.1
Cc1ccc2[nH]c(CN)nc2c1C	> 501	246
COc1ccc(-c2cc(NCCO)nc(N)n2)cc1C	> 501	280
NC1CCN(c2ccccc2OC(F)F)C1 (stereo unspecified)	> 501	135
NCCCc1nc(-c2ccc(F)cc2)no1	186	163
N#CCc1ccc(CN)cc1	135	182
CNC(=O)CN1CCC(OCCCc2ccccc2)C1 (stereo unspecified)	> 501	161
COc1ccc(C(=O)NC2COc3ccccc3C2)cc1OCC(=O)O (stereo unspecified)	26	> 50.1
N#Cc1cccc(OCCn2cnc(C#N)n2)c1	304	> 501
CC(=O)N1CCN(Cc2cc(Br)c3c(c2)OCO3)CC1	394	> 501
CCN(CCS(=O)(=O)c1ccccc1)CC(=O)N(C)C	126	130
NCc1cccc(OCc2ccccn2)c1	> 501	187
CCc1ccc(S(=O)(=O)N(C)CC(N)=O)s1	> 501	244
c1ccc(Oc2cccc(NCc3csnn3)c2)nc1	171	298
CC(C)Oc1ccc(S(=O)(=O)N2CCC(N)C2)cc1 (stereo unspecified)	> 501	212
CCOc1ccc(CNS(=O)(=O)N(C)C)cc1C	> 501	262
C=C(C)CCOC(=O)c1cc(C(N)=O)cs1	157	39.4
CCCOCCNC(=O)c1cc(C(F)(F)F)n[nH]1	43.8	54.8
c1cn(C2CCNCC2)nn1	409	354
CC(C)Nc1ncccc1C(=O)Nc1nncs1	> 501	> 501
Cc1ccc(C(C)(C)CN(C)C(=O)CCN)cc1	> 501	64.1
Cc1cnc(N2CCCC(c3ccccc3)C2)nc1-c1ncnn1C (stereo unspecified)	> 50.1	> 50.1
CC(C)CC(C)Oc1cc(CN)ccn1 (stereo unspecified)	> 501	> 501
CSCCC1c2nc[nH]c2CCN1Cc1[nH]c2ccc(F)cc2c1C (stereo unspecified)	> 50.1	> 50.1

Compound	IC50 [1] [µM]	IC50 [2] [µM]
N#Cc1cccnc1N1CCCNCC1	> 501	480
CN(C)c1cc(C(=O)Nc2ccccc2F)ccn1	321	237
CN(C)S(=O)(=O)NC1CCCOc2c(Cl)cccc21 (stereo unspecified)	> 501	> 501
COc1ccc(CNCCc2ccn(-c3ccccc3)n2)cc1O	> 50.1	> 50.1
COc1ccc(NC(=O)N2CCCN(C)CC2)cc1F	> 501	> 501
CN(Cc1nccs1)C(=O)C1COc2ccccc2C1 (stereo unspecified)	195	242
CN(Cc1nnc2n1CCC2)C(=O)c1ccc2c(c1)OCCCO2	> 50.1	> 50.1
CCOc1ccc(C(=O)CCN(C)C)cc1	191	160
Cc1cc(C(=O)NCC(O)c2ccccc2Cl)no1 (stereo unspecified)	> 501	177
NS(=O)(=O)N1CCN(CC=Cc2ccc(F)cc2)CC1	> 501	233
CCc1ccccc1OC1CN(C(=O)c2cccs2)C1	14.2	5.46
O=C(c1ccc(F)cc1)N1C[C@H]2CCC[C@@]2(COCc2ccncc2)C1	> 50.1	> 50.1
O=C(Nc1cccc(Cl)c1)C1CCCN1 (stereo unspecified)	> 501	147
COc1cccc(-c2noc(-c3ccc(NCC(C)O)nc3)n2)c1OC (stereo unspecified)	19.4	> 50.1
CC(=O)NCC(=O)N1C[C@@H]2CC[C@H](Oc3ccccc3Cl)[C@@H]2C1	> 50.1	> 50.1
CN(C)C(=O)CCN1CCCC1c1ccsc1 (stereo unspecified)	> 501	196
Cc1cccc(C)c1NC(=O)CC(CN1CCN(C)CC1)C(=O)O (stereo unspecified)	> 50.1	32.8
Cc1nc(CSCCC(=O)Nc2cccc(N3CCNC3=O)c2)cs1	> 50.1	> 50.1
Cc1nc(-c2nnc[nH]2)sc1C(=O)N1CCCC1Cn1cccn1 (stereo unspecified)	> 50.1	> 50.1
CN(C(=O)CC1=CCCCC1)C1CCCN(C2Cc3ccccc3C2)C1 (stereo unspecified)	> 50.1	> 50.1
Cc1cccc(Cl)c1OCCN	> 501	319
CC(=O)NCc1ccc(C(=O)NC2CCc3nc(C)cn3C2)o1 (stereo unspecified)	> 50.1	> 50.1
O=C(c1ccc(Cl)o1)N1CCN(Cc2ccco2)CC1	69.4	102
Cc1cc(NC(C)c2ccco2)nc(N)n1 (stereo unspecified)	> 501	> 501
CCOC(=O)Cn1nnc2ccccc2c1=O	> 501	> 501
CCCN(C)S(=O)(=O)NC(C)c1ccc(OC)c(F)c1 (stereo unspecified)	163	153

Compound	IC50 [1] [µM]	IC50 [2] [µM]
COc1ccc(OC)c(NC(=O)COCC(F)(F)F)c1	> 501	227
CC(C)NC(=O)CSc1nc(C=Cc2cccs2)n[nH]1	103	122
CN(CC(=O)N1CCOCC1)Cc1cc(Br)cs1	55.2	114
OC1(CNCCN2CCc3ccccc32)CNCCOC1 (stereo unspecified)	> 50.1	> 50.1
CCC1(CC)CCCN(C(=O)CS(=O)(=O)CC)CC1	50.9	72.7
Cc1cc(Br)cc2cc(C(=O)NC(C)(CO)CO)oc12	285	369
Cc1ccc(-n2cc(CN3CCOCC3)c(-c3cccc(C)c3)n2)cc1	> 50.1	24.8
Cc1ccc(C(=O)N2CCCC(Nc3ccc(F)cc3)C2)cc1 (stereo unspecified)	20.9	18.7
CN(C)CCN1CCOCC2(C1)CN(Cc1ccsc1)CCO2 (stereo unspecified)	> 50.1	> 50.1
COc1ccc(F)c(CN2CCCC3(CCN(C4CCOCC4)C3)C2)c1 (stereo unspecified)	25.1	16.7
CCc1ccc(CN(CCCn2ccnc2)Cc2ccc(C)s2)o1	36.8	37.5
CC(N)c1nc(-c2ccc3c(c2)OCO3)c[nH]1 (stereo unspecified)	> 501	> 501
Cc1ccc(NC(=O)C(C)N2CCC(O)CC2)cc1F (stereo unspecified)	284	200
CCn1nnc2c1C(COCC(=O)N(C)C)CN(Cc1ccoc1)C2 (stereo unspecified)	> 50.1	> 50.1
O=C(NCCC(O)C(F)(F)F)c1c(O)cc(F)cc1F (stereo unspecified)	244	290
NCCS(=O)(=O)N1CCc2ccccc21	240	149
O=C1CCN(CCOc2cc(F)cc(Br)c2)CCN1	279	198
CCCOc1cc(C)ccc1NC(=O)Cn1cnnn1	> 501	273
CC(C)Oc1cccc(C(O)CNC(=O)NCc2cccs2)c1 (stereo unspecified)	30.8	> 50.1
Cn1cc(Br)cc1C(=O)NCC1CCCO1 (stereo unspecified)	> 501	225
CN(Cc1ccco1)C(=O)c1cc(C2CC2)[nH]n1	59.3	107
CCc1nc(CN2CCCN(c3cnc4ccccc4n3)CC2)no1	26.5	> 50.1
CN(C)c1nc(-c2ccc3c(c2)CCC(=O)N3)cs1	201	120
O=C1N(Cc2ccccc2)CCN1S(=O)(=O)Cl	248	259
CCOCC(=O)NC(C)c1c(F)cccc1OC (stereo unspecified)	277	178
CC(=O)N1CCCC1c1nnn2cc(-c3ccncc3)ccc12 (stereo unspecified)	> 50.1	> 50.1

Compound	IC50 [1] [µM]	IC50 [2] [µM]
Cc1ccc(NCc2ncc(C(C)(C)C)o2)c(Cl)c1	9.14	8.32
CNc1nnc(-c2ccccc2)s1	> 501	> 501
Cc1cc(C)cc(OCCNC(=O)CSCC(N)=O)c1	> 501	139
CC(C)Cc1cc(C(=O)NCC(O)C(F)(F)F)[nH]n1 (stereo unspecified)	160	183
CC(C)CCN1CCNC(=O)C1CC(=O)NCCc1cc(O)ncn1 (stereo unspecified)	> 50.1	> 50.1
CC[C@H](N)C(=O)N(C)Cc1cccc(OC(F)(F)F)c1	> 501	199
CCc1nnc2n1CCN(C(C(=O)NC1CC1)c1ccccc1)C2 (stereo unspecified)	> 50.1	> 50.1
CCn1nc(C)c2nc(C)nc(NCCc3ccccc3)c21	> 50.1	32.5
CCc1nc(CN(C)Cc2nnc(-c3cccs3)o2)cs1	8.56	12.2
COc1ccc(NC(=O)COc2ccccc2F)cn1	> 501	213
COc1ccccc1N1CCC(N)C1 (stereo unspecified)	64.3	30.5
Cc1csc(NC(=O)C(C)Oc2ccc3c(c2)OCO3)n1 (stereo unspecified)	1.63	30.5
O=C(Nc1cccc(CO)n1)Nc1ccccc1Cl	> 501	246
CN(C)S(=O)(=O)NCC(O)c1ccc(Cl)c(F)c1 (stereo unspecified)	> 501	131
COc1cccc(C(=O)N2CCOC3(CCCN(C(C)=O)C3)C2)c1 (stereo unspecified)	> 50.1	> 50.1
CC(C)c1cc(C(=O)N2CC(c3ccccn3)C2)no1	60.5	70.5
COCC(C)Oc1cc(C)ccc1CN (stereo unspecified)	228	149
CCSC1=Nc2c(cnn2-c2ccc(Cl)cc2)C2=NCCCN12	17.1	12.8
O=C(NCC(O)c1ccc(F)cc1)Nc1cnns1 (stereo unspecified)	> 501	> 501
COc1ccccc1OCC(C)CN (stereo unspecified)	123	82.9
NC(=O)C1CCN(Cc2ccc(S(=O)(=O)N3CCCC3)o2)CC1	> 50.1	> 50.1
NC(=O)C1CCN(C(=O)CCc2ccc(Cl)cc2Cl)C1 (stereo unspecified)	284	157
CCc1noc(CSc2n[nH]c(-c3ccccn3)n2)n1	25.1	> 50.1
Cc1ccc(CN2CCN(C(=O)c3ccc(Br)o3)CC2)cc1	37.2	30.4
Cc1cc(C[C@@H]2COC[C@H]2NCc2ccc(C(C)C)cc2)on1	11.5	34.6
